Values of other authors, collected in patent EP3850074B1, “BENEFIT AGENT DELIVERY PARTICLES” (Unilever Global IP Ltd, priority 2018, dated 2020).

Conditions: at 25°C and at atmospheric pressure

Compound: Nc1nc(N)nc(N)n1 [melamine, 2,4,6-triamino-1,3,5-triazine]
- solubility in distilled water: about 0.3 g/L
